Test results taken from the supplement of paper PMC9663587.

Legend:
[1] = compound: C=CC(=O)Nc1ccc(C(=O)Nc2[nH]nc3c2CN(C(=O)N[C@H](CN(C)C)c2ccccc2)C3(C)C)cc1 [YKL-5-124]
[2] = compound: CCC(=O)Nc1ccc(C(=O)Nc2ccc(Nc3ncc4c(n3)N(C)c3ccc(C)cc3C(=O)N4C)cc2)cc1 [FMF-03-145-1]
[3] = compound: CO[C@H]1C[C@@H]2CC[C@@H](C)[C@@](O)(O2)C(=O)C(=O)N2CCCC[C@H]2C(=O)O[C@H]([C@H](C)C[C@@H]2CC[C@@H](OCCO)[C@H](OC)C2)CC(=O)[C@H](C)/C=C(\C)[C@@H](O)[C@@H](OC)C(=O)[C@H](C)C[C@H](C)/C=C/C=C/C=C/1C [Everolimus]
[4] = compound: COc1cccc(OCCCN)c1-c1cc(Nc2cnc(C#N)cn2)n[nH]1
[5] = compound: CC(C)n1nc(-c2ccc3oc(N)nc3c2)c2c(N)ncnc21 [INK128/MLN0128]; assay: increase in dead-cell fraction, 72 h; higher = more death;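 note: breast cancer cell lines in 384-well plates, stained with Hoechst plus LIVE/DEAD far red dye and imaged, cells above an LDR intensity threshold counted dead, Hoechst-negative corpses included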
[6] = compound: CC1(CCN(CC1)C2=CN=C(C(=N2)N)C3=C(C(=CC=C3)Cl)Cl)N [SHP099]; assay: as above
[7] = compound: CCNC(=O)c1noc(-c2cc(C(C)C)c(O)cc2O)c1-c1ccc(CN2CCOCC2)cc1 [Luminespib/NVP-AUY922]; assay: as above
[8] = compound: CN(C)C/C=C/C(=O)NC1=CC=C(C=C1)C(=O)NC2=CC=CC(=C2)NC3=NC=NC(=C3)C4=CNC5=CC=CC=C54 [THZ-P1-2]; assay: as above
[9] = compound: CN(C)C/C=C/C(=O)Nc1ccc(O[C@@H]2CCC[C@@H](Nc3ncc(Cl)c(-c4c[nH]c5ccccc45)n3)C2)cc1 [BSJ-01-175]; assay: as above
[10] = compound: Cc1nc(NC(=O)N2CCC[C@H]2C(N)=O)sc1-c1ccnc(C(C)(C)C(F)(F)F)c1 [Alpelisib/BYL719]; assay: as above
[11] = compound: CC(=O)c1c(C)c2cnc(Nc3ccc(N4CCN(CCOCCOCCOCCNC(=O)COc5cccc6c5C(=O)N(C5CCC(=O)NC5=O)C6=O)CC4)cn3)nc2n(C2CCCC2)c1=O [BSJ-03-123]; assay: GR value, 72 h; higher = faster growth (1 = untreated, <0 = killing);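 note: breast cancer and non-malignant breast epithelial lines, nine half-log doses, viable cells counted by Hoechst and LIVE/DEAD dye imaging versus time-zero plates and DMSO controls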
[12] = compound: CCOc1cc2ncc(C#N)c(Nc3ccc(OCc4ccccn4)c(Cl)c3)c2cc1NC(=O)/C=C/CN(C)C [Neratinib/HKI272]; assay: as above
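Throughout, for GR50, 72 h: breast cancer and non-malignant breast epithelial cell lines, Deep Dye Drop or Dye Drop imaging, nine half-log doses, GR normalized to time-zero plates and DMSO-only controls.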

Cell Line: AU565
- GR50, 72 h [1]: < 0.001 µM
- GR50, 72 h [2]: 0.00474 µM
- GR50, 72 h [3]: 0.00185 µM
- GR50, 72 h [4]: 0.000768 µM
- increase in dead-cell fraction ([5]; 0.0003162 µM): 0.0039
- increase in dead-cell fraction ([5]; 0.001 µM): 0.0034
- increase in dead-cell fraction ([5]; 0.003162 µM): 0.0155
- increase in dead-cell fraction ([5]; 0.01 µM): 0.0233
- increase in dead-cell fraction ([5]; 0.03162 µM): 0.0367
- increase in dead-cell fraction ([5]; 0.1 µM): 0.0543
- increase in dead-cell fraction ([5]; 0.3162 µM): 0.0671
- increase in dead-cell fraction ([5]; 1 µM): 0.084
- increase in dead-cell fraction ([5]; 3.162 µM): 0.244
- increase in dead-cell fraction ([6]; 0.001 µM): -0.0127
- increase in dead-cell fraction ([6]; 0.003162 µM): -0.0116
- increase in dead-cell fraction ([6]; 0.01 µM): -0.0073
- increase in dead-cell fraction ([6]; 0.03162 µM): -0.0133
- increase in dead-cell fraction ([6]; 0.1 µM): -0.0124
- increase in dead-cell fraction ([6]; 0.3162 µM): -0.0047
- increase in dead-cell fraction ([6]; 1 µM): -0.0147
- increase in dead-cell fraction ([6]; 3.162 µM): 0.0036
- increase in dead-cell fraction ([6]; 10 µM): -0.0053
- increase in dead-cell fraction ([7]; 0.0001 µM): -0.0018
- increase in dead-cell fraction ([7]; 0.0003162 µM): -0.0005
- increase in dead-cell fraction ([7]; 0.001 µM): -0.0013
- increase in dead-cell fraction ([7]; 0.003162 µM): 0.0017
- increase in dead-cell fraction ([7]; 0.01 µM): 0.0215
- increase in dead-cell fraction ([7]; 0.03162 µM): 0.03
- increase in dead-cell fraction ([7]; 0.1 µM): 0.0462
- increase in dead-cell fraction ([7]; 0.3162 µM): 0.0389
- increase in dead-cell fraction ([7]; 1 µM): 0.0492
- increase in dead-cell fraction ([8]; 0.01 µM): -0.0013
- increase in dead-cell fraction ([8]; 0.03162 µM): -0.0105
- increase in dead-cell fraction ([8]; 0.1 µM): 0.0091
- increase in dead-cell fraction ([8]; 0.3162 µM): -0.0029
- increase in dead-cell fraction ([8]; 1 µM): -0.0001
- increase in dead-cell fraction ([8]; 3.162 µM): -0.0022
- increase in dead-cell fraction ([8]; 10 µM): 0.569
- increase in dead-cell fraction ([9]; 0.001 µM): -0.006
- increase in dead-cell fraction ([9]; 0.003162 µM): 0.0214
- increase in dead-cell fraction ([9]; 0.01 µM): 0.121
- increase in dead-cell fraction ([9]; 0.03162 µM): 0.26
- increase in dead-cell fraction ([9]; 0.1 µM): 0.296
- increase in dead-cell fraction ([9]; 0.3162 µM): 0.35
- increase in dead-cell fraction ([9]; 1 µM): 0.443
- increase in dead-cell fraction ([9]; 3.162 µM): 0.432
- increase in dead-cell fraction ([9]; 10 µM): 0.68
- increase in dead-cell fraction ([10]; 0.001 µM): 0.0064
- increase in dead-cell fraction ([10]; 0.003162 µM): 0.0041
- increase in dead-cell fraction ([10]; 0.01 µM): 0.0062
- increase in dead-cell fraction ([10]; 0.03162 µM): 0.0114
- increase in dead-cell fraction ([10]; 0.1 µM): 0.0193
- increase in dead-cell fraction ([10]; 0.3162 µM): 0.0259
- increase in dead-cell fraction ([10]; 1 µM): 0.0468
- increase in dead-cell fraction ([10]; 3.162 µM): 0.0789
- increase in dead-cell fraction ([10]; 10 µM): 0.222
- GR value ([11]; 0.001 µM): 0.962 GR
- GR value ([11]; 0.003162 µM): 0.875 GR
- GR value ([11]; 0.01 µM): 0.791 GR
- GR value ([11]; 0.03162 µM): 0.759 GR
- GR value ([11]; 0.1 µM): 0.833 GR
- GR value ([11]; 0.3162 µM): 0.775 GR
- GR value ([11]; 1 µM): 0.41 GR
- GR value ([11]; 3.162 µM): 0.52 GR
- GR value ([11]; 10 µM): -0.386 GR
- GR value ([12]; 0.0003162 µM): 0.834 GR
- GR value ([12]; 0.001 µM): 0.534 GR
- GR value ([12]; 0.003162 µM): 0.172 GR
- GR value ([12]; 0.01 µM): -0.145 GR
- GR value ([12]; 0.03162 µM): -0.318 GR
- GR value ([12]; 0.1 µM): -0.388 GR
- GR value ([12]; 0.3162 µM): -0.506 GR
- GR value ([12]; 1 µM): -0.585 GR
- GR value ([12]; 3.162 µM): -0.614 GR
